Assay results: PubChem BioAssay (NCI)
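1) Cells in 96-well plates. 2) Compound, 48 h, 5 concentrations. 3) Linear interpolation between surrounding doses. 4) Unreached endpoint = highest concentration. The concentration for 50% growth inhibition is given as GI50. TGI: total growth inhibition.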

What was measured:
Experiment in all cases: inhibition of tumour cell growth, NCI panel, 48 h; in the data active means GI50 below about 0.43 µM; inactive means the rest
786-0 renal = system: 786-0 renal
A498 renal = system: A498 renal
A549 NSCLC = system: A549 NSCLC
ACHN renal = system: ACHN renal
BT-549 breast = system: BT-549 breast
CAKI-1 renal = system: CAKI-1 renal
CCRF-CEM leukemia = system: CCRF-CEM leukemia
COLO 205 colon = system: COLO 205 colon
DU-145 prostate = system: DU-145 prostate
EKVX NSCLC = system: EKVX NSCLC
HCC-2998 colon = system: HCC-2998 colon
HCT-116 colon = system: HCT-116 colon
HCT-15 colon = system: HCT-15 colon
HOP-62 NSCLC = system: HOP-62 NSCLC
HOP-92 NSCLC = system: HOP-92 NSCLC
HS 578T breast = system: HS 578T breast
HT29 colon = system: HT29 colon
IGROV1 ovarian = system: IGROV1 ovarian
K-562 leukemia = system: K-562 leukemia
KM12 colon = system: KM12 colon
LOX IMVI melanoma = system: LOX IMVI melanoma
MALME-3M melanoma = system: MALME-3M melanoma
MCF7 breast = system: MCF7 breast
MDA-MB-231 breast = system: MDA-MB-231 breast
MDA-MB-435 = system: MDA-MB-435
MOLT-4 leukemia = system: MOLT-4 leukemia
NCI-H226 lung = system: NCI-H226 lung
NCI-H23 lung = system: NCI-H23 lung
NCI-H460 lung = system: NCI-H460 lung
NCI-H522 lung = system: NCI-H522 lung
NCI/ADR-RES ovarian = system: NCI/ADR-RES ovarian
OVCAR-3 ovarian = system: OVCAR-3 ovarian
OVCAR-4 ovarian = system: OVCAR-4 ovarian
OVCAR-5 ovarian = system: OVCAR-5 ovarian
OVCAR-8 ovarian = system: OVCAR-8 ovarian
PC-3 prostate = system: PC-3 prostate
RPMI-8226 leukemia = system: RPMI-8226 leukemia
RXF 393 renal = system: RXF 393 renal
SF-268 CNS = system: SF-268 CNS
SF-295 CNS = system: SF-295 CNS
SF-539 CNS = system: SF-539 CNS
SK-MEL-2 melanoma = system: SK-MEL-2 melanoma
SK-MEL-28 melanoma = system: SK-MEL-28 melanoma
SK-MEL-5 melanoma = system: SK-MEL-5 melanoma
SK-OV-3 ovarian = system: SK-OV-3 ovarian
SN12C renal = system: SN12C renal
SNB-19 CNS = system: SNB-19 CNS
SNB-75 CNS = system: SNB-75 CNS
SR leukemia = system: SR leukemia
SW-620 colon = system: SW-620 colon
T-47D breast = system: T-47D breast
TK-10 renal = system: TK-10 renal
U251 CNS = system: U251 CNS
UACC-257 melanoma = system: UACC-257 melanoma
UACC-62 melanoma = system: UACC-62 melanoma
UO-31 renal = system: UO-31 renal
HL-60(TB) leukemia = system: HL-60(TB) leukemia
M14 melanoma = system: M14 melanoma

CSC1=Nc2c(c(C)c(-c3ccccc3)n2COC(CO)CO)C2=NC(=O)CN12
42.8 µM: TGI (IGROV1 ovarian)
inactive: GI50 (786-0 renal) > 100 µM | GI50 (A498 renal) > 100 µM | GI50 (A549 NSCLC) > 100 µM | GI50 (ACHN renal) > 100 µM | GI50 (BT-549 breast) > 100 µM | GI50 (CAKI-1 renal) > 100 µM | GI50 (CCRF-CEM leukemia) > 100 µM | GI50 (COLO 205 colon) > 100 µM | GI50 (DU-145 prostate) > 100 µM | GI50 (EKVX NSCLC) > 100 µM | GI50 (HCC-2998 colon) > 100 µM | GI50 (HCT-116 colon) > 100 µM | GI50 (HCT-15 colon) > 100 µM | GI50 (HOP-62 NSCLC) 98.2 µM | GI50 (HOP-92 NSCLC) > 100 µM | GI50 (HS 578T breast) > 100 µM | GI50 (HT29 colon) > 100 µM | GI50 (K-562 leukemia) > 100 µM | GI50 (KM12 colon) > 100 µM | GI50 (LOX IMVI melanoma) > 100 µM | GI50 (MALME-3M melanoma) > 100 µM | GI50 (MCF7 breast) > 100 µM | GI50 (MDA-MB-231 breast) > 100 µM | GI50 (MDA-MB-435) > 100 µM | GI50 (MOLT-4 leukemia) > 100 µM | GI50 (NCI-H226 lung) 88.2 µM | GI50 (NCI-H23 lung) > 100 µM | GI50 (NCI-H460 lung) > 100 µM | GI50 (NCI-H522 lung) > 100 µM | GI50 (NCI/ADR-RES ovarian) > 100 µM | GI50 (OVCAR-3 ovarian) > 100 µM | GI50 (OVCAR-4 ovarian) > 100 µM | GI50 (OVCAR-5 ovarian) > 100 µM | GI50 (OVCAR-8 ovarian) > 100 µM | GI50 (PC-3 prostate) > 100 µM | GI50 (RPMI-8226 leukemia) > 100 µM | GI50 (RXF 393 renal) > 100 µM | GI50 (SF-268 CNS) > 100 µM | GI50 (SF-295 CNS) > 100 µM | GI50 (SF-539 CNS) > 100 µM | GI50 (SK-MEL-2 melanoma) > 100 µM | GI50 (SK-MEL-28 melanoma) > 100 µM | GI50 (SK-MEL-5 melanoma) > 100 µM | GI50 (SK-OV-3 ovarian) > 100 µM | GI50 (SN12C renal) > 100 µM | GI50 (SNB-19 CNS) > 100 µM | GI50 (SNB-75 CNS) 58.9 µM | GI50 (SR leukemia) > 100 µM | GI50 (SW-620 colon) > 100 µM | GI50 (T-47D breast) > 100 µM | GI50 (TK-10 renal) > 100 µM | GI50 (U251 CNS) > 100 µM | GI50 (UACC-257 melanoma) > 100 µM | GI50 (UACC-62 melanoma) > 100 µM | GI50 (UO-31 renal) > 100 µM
> 100 µM: TGI (786-0 renal) | TGI (A498 renal) | TGI (A549 NSCLC) | TGI (ACHN renal) | TGI (BT-549 breast) | TGI (CAKI-1 renal) | TGI (CCRF-CEM leukemia) | TGI (COLO 205 colon) | TGI (DU-145 prostate) | TGI (EKVX NSCLC) | TGI (HCC-2998 colon) | TGI (HCT-116 colon) | TGI (HCT-15 colon) | TGI (HOP-62 NSCLC) | TGI (HOP-92 NSCLC) | TGI (HS 578T breast) | TGI (HT29 colon) | TGI (K-562 leukemia) | TGI (KM12 colon) | TGI (LOX IMVI melanoma) | TGI (MALME-3M melanoma) | TGI (MCF7 breast) | TGI (MDA-MB-231 breast) | TGI (MDA-MB-435) | TGI (MOLT-4 leukemia) | TGI (NCI-H226 lung) | TGI (NCI-H23 lung) | TGI (NCI-H460 lung) | TGI (NCI-H522 lung) | TGI (NCI/ADR-RES ovarian) | TGI (OVCAR-3 ovarian) | TGI (OVCAR-4 ovarian) | TGI (OVCAR-5 ovarian) | TGI (OVCAR-8 ovarian) | TGI (PC-3 prostate) | TGI (RPMI-8226 leukemia) | TGI (RXF 393 renal) | TGI (SF-268 CNS) | TGI (SF-295 CNS) | TGI (SF-539 CNS) | TGI (SK-MEL-2 melanoma) | TGI (SK-MEL-28 melanoma) | TGI (SK-MEL-5 melanoma) | TGI (SK-OV-3 ovarian) | TGI (SN12C renal) | TGI (SNB-19 CNS) | TGI (SNB-75 CNS) | TGI (SR leukemia) | TGI (SW-620 colon) | TGI (T-47D breast) | TGI (TK-10 renal) | TGI (U251 CNS) | TGI (UACC-257 melanoma) | TGI (UACC-62 melanoma) | TGI (UO-31 renal)
active: GI50 (IGROV1 ovarian) 0.421 µM

CCN(Cc1ccc(F)cc1)c1ccc(CO)c(C(F)(F)F)c1
11.6 µM: TGI (IGROV1 ovarian)
45.2 µM: TGI (RPMI-8226 leukemia)
18.4 µM: TGI (U251 CNS)
16.5 µM: TGI (SF-295 CNS)
17.8 µM: TGI (HOP-92 NSCLC)
0.287 µM: TGI (A498 renal)
31.2 µM: TGI (HT29 colon)
28.2 µM: TGI (HCC-2998 colon)
30.6 µM: TGI (SNB-75 CNS)
31.8 µM: TGI (DU-145 prostate)
12.8 µM: TGI (HCT-116 colon) | TGI (OVCAR-4 ovarian)
21.2 µM: TGI (HOP-62 NSCLC)
19.6 µM: TGI (OVCAR-3 ovarian)
7.01 µM: TGI (UACC-257 melanoma)
inactive: GI50 (786-0 renal) 12.4 µM | GI50 (A549 NSCLC) 10.9 µM | GI50 (ACHN renal) 14.6 µM | GI50 (BT-549 breast) 15.1 µM | GI50 (CAKI-1 renal) 13.9 µM | GI50 (CCRF-CEM leukemia) 14.7 µM | GI50 (COLO 205 colon) 14.4 µM | GI50 (DU-145 prostate) 16.7 µM | GI50 (HCC-2998 colon) 14.9 µM | GI50 (HCT-116 colon) 1.54 µM | GI50 (HCT-15 colon) 14.4 µM | GI50 (HL-60(TB) leukemia) 15.8 µM | GI50 (HOP-62 NSCLC) 9.23 µM | GI50 (HOP-92 NSCLC) 2.29 µM | GI50 (HS 578T breast) 14.1 µM | GI50 (HT29 colon) 14.3 µM | GI50 (IGROV1 ovarian) 1.56 µM | GI50 (K-562 leukemia) 10.4 µM | GI50 (KM12 colon) 15.2 µM | GI50 (LOX IMVI melanoma) 17.5 µM | GI50 (M14 melanoma) 15.1 µM | GI50 (MALME-3M melanoma) 15.5 µM | GI50 (MCF7 breast) 5.77 µM | GI50 (MDA-MB-231 breast) 14.3 µM | GI50 (MDA-MB-435) 16 µM | GI50 (MOLT-4 leukemia) 15.2 µM | GI50 (NCI-H23 lung) 11.1 µM | GI50 (NCI-H460 lung) 3.43 µM | GI50 (NCI-H522 lung) 12.5 µM | GI50 (NCI/ADR-RES ovarian) 13.7 µM | GI50 (OVCAR-3 ovarian) 6.91 µM | GI50 (OVCAR-4 ovarian) 1.79 µM | GI50 (OVCAR-5 ovarian) 1.28 µM | GI50 (OVCAR-8 ovarian) 14.3 µM | GI50 (PC-3 prostate) 12.1 µM | GI50 (RPMI-8226 leukemia) 11.7 µM | GI50 (RXF 393 renal) 14.9 µM | GI50 (SF-268 CNS) 15.5 µM | GI50 (SF-295 CNS) 3.3 µM | GI50 (SF-539 CNS) 15.5 µM | GI50 (SK-MEL-2 melanoma) 15.1 µM | GI50 (SK-MEL-28 melanoma) 14.1 µM | GI50 (SK-MEL-5 melanoma) 13.9 µM | GI50 (SK-OV-3 ovarian) 15.8 µM | GI50 (SN12C renal) 12.9 µM | GI50 (SNB-19 CNS) 15.3 µM | GI50 (SNB-75 CNS) 14.3 µM | GI50 (SW-620 colon) 11.2 µM | GI50 (T-47D breast) 1.84 µM | GI50 (U251 CNS) 4.1 µM | GI50 (UACC-257 melanoma) 1.76 µM | GI50 (UACC-62 melanoma) 1.41 µM | GI50 (UO-31 renal) 12.5 µM
40.3 µM: TGI (HS 578T breast)
29.4 µM: TGI (HCT-15 colon) | TGI (MDA-MB-435)
active: GI50 (A498 renal) 0.122 µM
25.7 µM: TGI (PC-3 prostate)
27.1 µM: TGI (SK-MEL-28 melanoma)
30.3 µM: TGI (MALME-3M melanoma)
19.2 µM: TGI (MCF7 breast)
25.5 µM: TGI (SN12C renal)
25 µM: TGI (UO-31 renal)
43.7 µM: TGI (CCRF-CEM leukemia)
52.1 µM: TGI (K-562 leukemia)
26.9 µM: TGI (NCI-H522 lung)
43.5 µM: TGI (MOLT-4 leukemia)
26.8 µM: TGI (SK-MEL-5 melanoma)
27.3 µM: TGI (MDA-MB-231 breast) | TGI (OVCAR-8 ovarian)
24.2 µM: TGI (NCI-H23 lung)
28 µM: TGI (NCI/ADR-RES ovarian)
31.3 µM: TGI (LOX IMVI melanoma) | TGI (SF-268 CNS)
27.5 µM: TGI (COLO 205 colon)
28.7 µM: TGI (CAKI-1 renal)
5 µM: TGI (OVCAR-5 ovarian)
30.9 µM: TGI (M14 melanoma)
29.3 µM: TGI (KM12 colon)
32.5 µM: TGI (SK-MEL-2 melanoma)
28.6 µM: TGI (SNB-19 CNS)
41.9 µM: TGI (HL-60(TB) leukemia)
27.8 µM: TGI (ACHN renal)
28.9 µM: TGI (SF-539 CNS)
28.3 µM: TGI (BT-549 breast) | TGI (RXF 393 renal)
10.4 µM: TGI (T-47D breast)
15.7 µM: TGI (NCI-H460 lung)
7.33 µM: TGI (UACC-62 melanoma)
23.5 µM: TGI (A549 NSCLC) | TGI (SW-620 colon)
26.2 µM: TGI (786-0 renal)
30.8 µM: TGI (SK-OV-3 ovarian)
